Experimental data reported in ChEMBL document CHEMBL1137061 (Bioorg Med Chem Lett, 2004).

Legend:
Type in all cases: cell membranes, Membrane
[1] = molecular target: Muscarinic acetylcholine receptor; experiment: Inhibition of [3H]N-methylscopolamine binding to muscarinic receptor of rat cortex membranes
[2] = molecular target: Neuronal acetylcholine receptor subunit alpha-7 (Rattus norvegicus, UniProt Q05941)
[3] = molecular target: Neuronal acetylcholine receptor; alpha4/beta2 (Rattus norvegicus, UniProt P09483+P12390); experiment: Inhibition of [3H]epibatidine binding to alpha 4 beta 2 nicotinic acetylcholine receptor of rat cortex membranes
Neuronal acetylcholine receptor; alpha4/beta2, sequence (P09483 whole entry): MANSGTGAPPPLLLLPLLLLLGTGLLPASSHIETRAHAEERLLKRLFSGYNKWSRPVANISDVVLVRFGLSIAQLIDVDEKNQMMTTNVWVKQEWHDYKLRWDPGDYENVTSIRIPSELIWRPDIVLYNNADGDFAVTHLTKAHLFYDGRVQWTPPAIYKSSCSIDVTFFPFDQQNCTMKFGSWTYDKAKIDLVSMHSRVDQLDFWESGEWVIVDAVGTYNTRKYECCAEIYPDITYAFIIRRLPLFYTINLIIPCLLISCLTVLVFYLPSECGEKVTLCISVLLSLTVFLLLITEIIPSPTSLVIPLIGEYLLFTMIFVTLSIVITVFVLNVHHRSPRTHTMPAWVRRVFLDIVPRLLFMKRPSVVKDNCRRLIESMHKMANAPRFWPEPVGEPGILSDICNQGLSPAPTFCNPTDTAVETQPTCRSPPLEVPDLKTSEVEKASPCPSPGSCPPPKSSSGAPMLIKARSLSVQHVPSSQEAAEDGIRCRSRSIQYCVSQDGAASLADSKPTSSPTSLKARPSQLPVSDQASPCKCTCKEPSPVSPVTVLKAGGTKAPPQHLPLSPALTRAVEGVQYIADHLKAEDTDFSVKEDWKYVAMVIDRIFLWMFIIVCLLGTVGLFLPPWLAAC
Neuronal acetylcholine receptor; alpha4/beta2, sequence (P12390 whole entry): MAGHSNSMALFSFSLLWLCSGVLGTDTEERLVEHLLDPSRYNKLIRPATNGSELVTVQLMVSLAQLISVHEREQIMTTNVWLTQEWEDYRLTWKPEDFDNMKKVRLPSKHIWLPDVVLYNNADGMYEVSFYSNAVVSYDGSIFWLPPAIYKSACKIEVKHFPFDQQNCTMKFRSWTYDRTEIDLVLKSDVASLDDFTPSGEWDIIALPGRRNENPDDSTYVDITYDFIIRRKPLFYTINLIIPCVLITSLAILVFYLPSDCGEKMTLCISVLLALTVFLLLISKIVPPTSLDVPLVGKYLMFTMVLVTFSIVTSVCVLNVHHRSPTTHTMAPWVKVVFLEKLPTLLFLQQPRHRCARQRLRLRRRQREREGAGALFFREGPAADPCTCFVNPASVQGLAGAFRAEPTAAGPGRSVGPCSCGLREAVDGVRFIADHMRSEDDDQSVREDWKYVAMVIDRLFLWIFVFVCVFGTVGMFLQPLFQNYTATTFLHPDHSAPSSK

Neuronal acetylcholine receptor subunit alpha-7, sequence (Q05941 whole entry): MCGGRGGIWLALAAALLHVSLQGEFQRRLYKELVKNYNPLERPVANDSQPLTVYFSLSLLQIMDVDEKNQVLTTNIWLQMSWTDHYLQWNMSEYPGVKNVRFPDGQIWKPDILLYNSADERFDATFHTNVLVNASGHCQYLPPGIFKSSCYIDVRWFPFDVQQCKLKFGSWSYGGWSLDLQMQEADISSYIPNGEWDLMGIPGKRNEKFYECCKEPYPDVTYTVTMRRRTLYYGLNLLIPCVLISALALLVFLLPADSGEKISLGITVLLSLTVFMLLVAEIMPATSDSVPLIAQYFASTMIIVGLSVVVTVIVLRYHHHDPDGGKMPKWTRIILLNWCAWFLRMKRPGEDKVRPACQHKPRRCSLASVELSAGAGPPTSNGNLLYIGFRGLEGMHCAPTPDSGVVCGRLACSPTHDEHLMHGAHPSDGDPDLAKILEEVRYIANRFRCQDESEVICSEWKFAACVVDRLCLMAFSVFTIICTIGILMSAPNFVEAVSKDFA

Row | Structure (SMILES) | Ki [1] [µM] | Ki [2] [µM] | Ki [3] [µM]
1 | C/C=N\OC[C@@H]1CCCN1C | > 50 | > 50 | –
2 | CC(C)=NO[C@H]1CCCN(C)C1 | – | – | > 50
3 | CC(C)=NOC[C@@H]1CCCN1C | > 50 | 49 | 0.52
4 | CC(C)O/N=C/[C@@H]1CCCN1C | 17 | > 50 | –
5 | CC=NOC[C@@H]1CCCN1C | > 50 | > 50 | 0.68
6 | C/C=N\OC[C@H]1CCCN1C | – | – | 5.79
7 | CC(C)O/N=C/[C@H]1CCCN1C | – | 47 | 5.5
8 | CC(C)O/N=C\[C@@H]1CCCN1C | – | – | 1.9
9 | CC(C)=NO[C@@H]1CCCN(C)C1 | – | – | > 50
10 | CC(C)O/N=C\[C@H]1CCCN1C | – | – | 14.5
11 | Cc1cc([C@@H]2CCCN2C)on1 [ABT-418] | – | 1.2 | 0.02
